Test results taken from paper PMC9436958, “The synthesis of novel thioderivative chalcones and their influence on NF-κB, STAT3 and NRF2 signaling pathways in colorectal cancer cells” (Scientific Reports, 2022).

Experiments:
Assay type in all cases: cell-based
[1] = system: p-Akt; test: Western blot, p-Akt (Ser 473) protein in cytosolic fraction; conditions: 2, 5 at 5 μM, 4 at 1 μM
Experimental: (§1) Cytosolic and nuclear extracts were prepared using a Nuclear/Cytosol Fractionation Kit (BioVision Research, USA). Cytosolic extracts (for NF-κBp65, NF-κBp50, COX-2, iNOS, STAT3, c-Myc, Bcl-xl, Nrf2, SOD, GSTP, EGFR, Akt, p-Akt, Keap1, IKKα/β and β-actin) or nuclear extracts (for NF-κBp65, NF-κBp50, STAT3, p-STAT3, Nrf2, p-Nrf2 and lamin) were separated on 7.5%, 10% or 12% SDS–PAGE slab gels. Then, the proteins were transferred to a nitrocellulose Immobilon-P membrane. After blocking for 2 h with 10% skimmed milk, proteins were incubated with primary antibodies against NF-κBp65, NF-κBp50, COX-2, iNOS, STAT3, p-STAT3, c-Myc, Bcl-xl, Nrf2, p-Nrf2, SOD, GSTP, EGFR, Akt, p-Akt, Keap1, IKKα/β, β-actin, and lamin. Alkaline phosphatase (AP)-labeled anti-rabbit IgG, anti-goat IgG, and anti-mouse IgG secondary antibodies (Bio-Rad Laboratories, USA), as well as horseradish peroxidase (HRP)-conjugated anti-mouse IgG (Boster Bio, USA) secondary antibodies were used in the staining reaction. Bands were visualized by the AP Conjugate Substrate Kit NBT/BCIP or the chemiluminescent HRP substrate of the Clarity ECL Kit (Bio–Rad Laboratories, USA). The amount of immunoreactive product in each lane was determined using a ChemiDoc Imaging System (Bio–Rad Laboratories, USA). Values were calculated as relative absorbance units (RQ) per mg of protein and expressed as a percentage of the control.

[2] = MTT viability assay, normal HaCaT cells; conditions: HaCaT cells (spontaneously immortalized keratinocytes), normal human HaCaT cells, read-out: IC50, cytotoxicity
Experimental: (§2) The DLD-1 and HCT116 colorectal carcinoma cell lines were purchased from ECACC. The HaCaT cell line of spontaneously immortalized keratinocytes was purchased from Cell Lines Service (Germany). The cells were cultured in Dulbecco’s Modified Eagle’s Medium (DMEM, Sigma-Aldrich, USA) with the addition of 10% FBS (EURx, Poland) and 1% antibiotic solution (penicillin and streptomycin) (Sigma-Aldrich, USA) at 37 °C in an atmosphere with 95% humidity and 5% CO2.
(§3) The effect of the tested compounds on the viability of DLD-1, HCT116 and HaCaT cells was assessed by the MTT assay according to the standard protocol.

[3] = system: EGFR; test: Western blot, EGFR protein in cytosolic fraction; conditions: 4 at 1 μM
Experimental: as §1

[4] = system: DLD-1 cells; test: Apoptosis, Annexin V / 7-AAD flow cytometry, DLD-1; conditions: 48 h; for induction of apoptosis: mainly early and total apoptotic populations enriched
Experimental: (§4) Apoptosis was assessed by the detection of phosphatidylserine externalization based on Annexin V staining combined with fluorescent DNA intercalator 7-Aminoactinomycin D (7-AAD) what allowed for the discrimination between early and late apoptotic cells. The analysis was performed by flow cytometry using the Muse Annexin V & Dead Cell Kit (Luminex, USA) and the Muse Cell Analyzer (Merck, Germany), according to the manufacturer’s protocol. Cells were seeded (2 × 10^5 cells per well) in six-well plates and on the following day the analyzed compounds were added. Topotecan (Sigma-Aldrich, USA) was used as a positive control of apoptosis induction. After 48 h cells were collected by trypsinization, stained and after 20 min incubation at room temperature in the dark analyzed by flow cytometry. Three independent experiments were performed. Data were analyzed by Muse 1.5 Analysis Software (Merck, Germany).

[5] = system: STAT3; test: qRT-PCR, STAT3 mRNA; conditions: DLD-1 cells; 2, 5 at 5 μM, 4 at 1 μM
Experimental: (§5) Total RNA from cells was isolated with the GeneMatrix Universal DNA/RNA/Protein Purification Kit (EurX, Poland). For the qRT-PCR analyses, the Maxima SYBR Green I/ROX qPCR Master Mix (2×) (Thermo Fisher Scientific, USA) and the thermal cycler LightCycler (Roche, Germany) were used. The protocol started with 5 min of enzyme activation at 95 °C, followed by 40–50 cycles at 95 °C for 15 s, 56 °C for 20 s, 72 °C for 40 s, and final elongation at 72 °C for 5 min. Melting curve analysis was used for amplicon verification. The expression levels of TATA-box-binding protein (TBP) and porphobilinogen deaminase (PBGD) were used to normalize the data. The Pfaffl comparative method was used to calculate fold change. Primers were designed using Beacon Designer software (the sequences of primers used to analyze genes are listed in Table 2 of the supplementary materials).

[6] = system: Bcl-xl; test: Bcl-xl expression (qRT-PCR mRNA, Western blot protein); conditions: HCT116 cells, 5 at 5 μM; for Bcl-xl transcription: 4 at 1 μM
Experimental: as §1, §5

[7] = system: STAT3; test: Western blot, STAT3 protein level; conditions: 4 at 1 μM
Experimental: as §1

[8] = system: HCT116 cells; test: MTT viability assay, HCT116 cells; conditions: Homo sapiens, HCT-116, range 0.5–100 µM, read-out: IC50, cytotoxicity
Experimental: as §2, §3

[9] = system: STAT3; test: Transcription factor ELISA, STAT3 binding to DNA; conditions: 2, 5 at 5 μM, 4 at 1 μM; for binding of STAT3 to DNA: HCT116 cells; for decrease in the binding of STAT3 to DNA: nuclear fraction of DLD-1 cells
Experimental: (§6) To estimate NF-ΚB (p50 and p65 subunits) STAT3 and Nrf2 activation, enzymatic immunoassays with the Transcription Factor ELISA Kit (TransAM™NF-κB, TransAM™STAT3/TransAM™Nrf2, Active Motif, Carlsbad CA, USA) were used following the manufacturer’s protocol. Briefly, proper consensus-site double-strand oligonucleotides (NF-κB—5′-GGGACTTTCC-3′; STAT3-5’—TTCCCGGAA-3’; Nrf2-5ʹ—[…]-3ʹ) were immobilized on an ELISA plate and incubated for one hour with the nuclear extracts. The activated subunits bound to DNA were recognized with a specific primary antibody and detected with an HRP-conjugated secondary antibody. The number of subunits was determined by spectrophotometry at λ = 450 nm. The number of p50, and p65 subunits, STAT3, as well as the amount of Nrf2 contained in the DNA-binding complex, corresponded to the activated NF-κB, STAT3, or Nrf2 transcription factors.

[10] = system: Nrf2; test: Transcription factor ELISA, Nrf2 binding to DNA
Experimental: as §6

[11] = system: DLD-1 cells; test: MTT viability assay, DLD-1 cells; conditions: Homo sapiens, range 0.5–100 µM, read-out: IC50, cytotoxicity
Experimental: as §2, §3

[12] = system: HCT116 cells; test: Apoptosis, Annexin V / 7-AAD flow cytometry, HCT116; conditions: 48 h; for induction of apoptosis: increase of early, late and total apoptosis
Experimental: as §4

[13] = HCT116 cells, 4 at 1 μM, 2, 5, 6, 7 at 5 μM
[14] = doubled concentration: 4 at 2 μM, 5 at 10 μM

Question: For `COc1cc(C(=O)/C=C/c2cccc(SC)c2)cc(Br)c1OC` [chalcone 4], which “phosphorylation of p-Akt (Ser 473)” value ([1]; DLD-1 cells) is on record?
Answer: significantly reduced phosphorylation of p-Akt

Question: What about the “phosphorylation of p-Akt (Ser 473)” value ([1]; HCT116 cells) of the same compound?
Answer: significantly reduced phosphorylation of p-Akt

Question: And the IC50 [2]?
Answer: 3 µM

Question: And the “level of EGFR” value ([3]; DLD-1 cells, 2, 5 at 5 μM)?
Answer: significantly decreased the level of EGFR

Question: What about the “level of EGFR” value ([3]; HCT116 cells) of the same compound?
Answer: significantly decreased the level of EGFR

Question: And the induction of apoptosis [4]?
Answer: able to induce apoptosis

Question: And the “STAT3 gene expression (mRNA)” value [5]?
Answer: decreased

Question: And the Bcl-xl transcription [6]?
Answer: decreased Bcl-xl transcription

Question: What about the “decrease in the nuclear level of STAT3 protein” value ([7]; DLD-1 cells, 2 at 5 μM) of the same compound?
Answer: 21%

Question: And the “decrease in the nuclear level of STAT3 protein” value ([7]; HCT116 cells)?
Answer: 22%

Question: And the IC50 [8]?
Answer: 20 µM

Question: What about the “binding of STAT3 to DNA” value [9] of the same compound?
Answer: decreased the binding of STAT3 to DNA

Question: What about the “decrease in the binding of STAT3 to DNA” value [9] of the same compound?
Answer: 30%

Question: What about the “Nrf2 binding to a specific nucleotide sequence (ELISA)” value [10, 13] of the same compound?
Answer: statistically significant increase

Question: And the IC50 [11]?
Answer: 2 µM

Question: And the “late and total apoptosis compared with BAY 11-7082 (5 µM)” value [12, 14]?
Answer: higher percentage of late and total apoptosis than BAY 11-7082

Question: And the induction of apoptosis [12]?
Answer: able to induce apoptosis

Question: What does the source list for `COc1cc(/C=C/C(=O)c2cc(Br)c(SC)c(OC)c2)ccc1SC` [chalcone 5]?
Answer: phosphorylation of p-Akt (Ser 473) ([1]; DLD-1 cells): significantly reduced phosphorylation of p-Akt; phosphorylation of p-Akt (Ser 473) ([1]; HCT116 cells): significantly reduced phosphorylation of p-Akt; IC50 [2]: 14 µM; level of EGFR ([3]; DLD-1 cells, 2, 5 at 5 μM): significantly decreased the level of EGFR; total apoptotic cells compared with BAY 11-7082 (5 µM) ([4]; 5 in higher concentration): comparable effect; induction of apoptosis [4]: able to induce apoptosis; STAT3 gene expression (mRNA) [5]: decreased; Bcl-xl transcription [6]: decreased Bcl-xl transcription; Bcl-xl protein level [6]: correlated with Bcl-xl protein level; IC50 [8]: 13 µM; binding of STAT3 to DNA [9]: decreased the binding of STAT3 to DNA; decrease in the binding of STAT3 to DNA [9]: 20%; Nrf2 binding to a specific nucleotide sequence (ELISA) ([10]; DLD-1 cells, 1 at 1 μM, 3, 5, 7, 8 at 5 μM): statistically significant increase; Nrf2 binding to a specific nucleotide sequence (ELISA) [10, 13]: statistically significant increase; IC50 [11]: 11 µM; late and total apoptosis compared with BAY 11-7082 (5 µM) [12, 14]: higher percentage of late and total apoptosis than BAY 11-7082; induction of apoptosis [12]: able to induce apoptosis; late and total apoptosis compared with BAY 11-7082 (5 µM) ([12]; standard concentration: 5 at 5 μM): higher percentage of late and total apoptosis than BAY 11-7082
